Data reported in US8278345B2, “Inhibitors of glutaminyl cyclase” (Probiodrug AG, priority 2006, dated 2012).
Read-outs that look alike come from different tables or passages of the source.

Biological target: hQC (Homo sapiens, UniProt Q16769)
Test: Inhibitor assay for glutaminyl cyclase activity (fluorometric, H-Gln-βNA / H-Gln-AMC)
Format: biochemical
Procedure, shortened: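 Ki values came from fitting progress curves to a competitive inhibition model; rapid screens used 4 mM inhibitor with substrate at KM. QC activity was read at 30 °C via auxiliary pyroglutamyl aminopeptidase releasing βNA (0.2 mM H-Gln-βNA, 0.2 M Tris pH 8.0, 20 mM EDTA) or AMC (0.05 M Tris pH 8.0, 5 mM EDTA).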

[1] = compound from preparative synthesis, purified, read-out: IC50 hQC

Chain of hQC (Q16769 29-361): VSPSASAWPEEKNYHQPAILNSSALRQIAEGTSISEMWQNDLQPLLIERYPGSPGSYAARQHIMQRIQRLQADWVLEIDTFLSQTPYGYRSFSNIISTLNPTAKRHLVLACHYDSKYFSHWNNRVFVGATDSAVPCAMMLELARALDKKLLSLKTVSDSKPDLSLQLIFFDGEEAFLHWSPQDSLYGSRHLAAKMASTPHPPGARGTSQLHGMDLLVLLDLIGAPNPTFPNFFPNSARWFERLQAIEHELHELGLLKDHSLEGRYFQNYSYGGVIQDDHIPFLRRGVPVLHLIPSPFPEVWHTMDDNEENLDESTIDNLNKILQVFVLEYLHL

CC(C)C1=C(O)C(=O)N(CCCn2ccnc2)C1c1cccc(O)c1 (centres unmarked) [Compound 75, 3-Hydroxy-5-(3-hydroxy-phenyl)-1-(3-imidazol-1-yl-propyl)-4-isopropyl-1,5-dihydro-pyrrol-2-one]
IC50 (read-out: IC50): 4900 nM

CCCC(=O)C1=C(O)C(=O)N(c2ccc3[nH]cnc3c2)C1c1ccc[nH]1 (centres unmarked) [Compound 355, 1-(1H-Benzoimidazol-5-yl)-3-butyryl-4-hydroxy-1,2-dihydro-1′H-[2,2′]bipyrrolyl-5-one]
IC50 (read-out: IC50): 8680 nM

CC1=C(O)C(=O)N(c2ccc3[nH]cnc3c2)C1c1c[nH]c2cc(C)ccc12 (centres unmarked) [Compound 436, 1-(1H-Benzoimidazol-5-yl)-3-hydroxy-4-methyl-5-(6-methyl-1H-indol-3-yl)-1,5-dihydro-pyrrol-2-one]
IC50 (read-out: IC50): 490 nM

CC(=O)C1=C(O)C(=O)N(c2ccc3[nH]cnc3c2)C1c1cccc(Cl)c1 (centres unmarked) [Compound 301, 4-Acetyl-1-(1H-benzoimidazol-5-yl)-5-(3-chloro-phenyl)-3-hydroxy-1,5-dihydro-pyrrol-2-one]
IC50 (read-out: IC50): 130 nM

CC(C)C1=C(O)C(=O)N(c2ccc3[nH]cnc3c2)C1c1ccco1 (centres unmarked) [Compound 371, 1-(1H-Benzoimidazol-5-yl)-5-furan-2-yl-3-hydroxy-4-isopropyl-1,5-dihydro-pyrrol-2-one]
IC50 (read-out: IC50): 5530 nM

CCC1=C(O)C(=O)N(CCCn2ccnc2)C1c1ccc(O)cc1 (centres unmarked) [Compound 251, 4-Ethyl-3-hydroxy-5-(4-hydroxy-phenyl)-1-(3-imidazol-1-yl-propyl)-1,5-dihydro-pyrrol-2-one]
IC50 (read-out: IC50): 400 nM

CCC1=C(O)C(=O)N(CCCn2ccnc2)C1c1cccs1 (centres unmarked) [Compound 245, 4-Ethyl-3-hydroxy-1-(3-imidazol-1-yl-propyl)-5-thiophen-2-yl-1,5-dihydro-pyrrol-2-one]
IC50 (read-out: IC50): 40 nM

O=C1C(O)=C(c2ccc(O)cc2)C(C2CCOC2)N1c1ccc2[nH]cnc2c1 (centres unmarked) [Compound 279, 1-(1H-Benzoimidazol-5-yl)-3-hydroxy-4-(4-hydroxy-phenyl)-5-(tetrahydro-furan-3-yl)-1,5-dihydro-pyrrol-2-one]
IC50 (read-out: IC50): 5800 nM

O=C(C1=C(O)C(=O)N(c2ccc3[nH]cnc3c2)C1c1ccc(Cl)c(C(F)(F)F)c1)C1CCCCC1 (centres unmarked) [Compound 454, 1-(1H-Benzoimidazol-5-yl)-5-(4-chloro-3-trifluoromethyl-phenyl)-4-cyclohexanecarbonyl-3-hydroxy-1,5-dihydro-pyrrol-2-one]
IC50 (read-out: IC50): 2560 nM

O=C1C(O)=C(c2ccccc2)C(c2ccc3[nH]ccc3c2)N1CCCn1ccnc1 (centres unmarked) [Compound 85, 3-Hydroxy-1-(3-imidazol-1-yl-propyl)-5-(1H-indol-5-yl)-4-phenyl-1,5-dihydro-pyrrol-2-one]
IC50 [1]: 640 nM | IC50 (read-out: IC50): 40 nM

O=C1C(O)=C(c2ccc(O)cc2)C(c2ccc3[nH]ccc3c2)N1CCCn1ccnc1 (centres unmarked) [Compound 155, 3-Hydroxy-4-(4-hydroxy-phenyl)-1-(3-imidazol-1-yl-propyl)-5-(1H-indol-5-yl)-1,5-dihydro-pyrrol-2-one]
IC50 [1]: 370 nM | IC50 (read-out: IC50): 40 nM

O=C1C(O)=C(c2cccc(O)c2)C(c2ccc3nsnc3c2)N1c1ccc2[nH]cnc2c1 (centres unmarked) [Compound 269, 1-(1H-Benzoimidazol-5-yl)-5-benzo[c][1,2,5]thiadiazol-5-yl-3-hydroxy-4-(3-hydroxy-phenyl)-1,5-dihydro-pyrrol-2-one]
IC50 [1]: 22.5 nM | IC50 (read-out: IC50): 4 nM

O=C(O)CC1=C(O)C(=O)N(c2ccc3[nH]cnc3c2)C1c1csc2ccccc12 (centres unmarked) [Compound 408, [2-Benzo[b]thiophen-3-yl-1-(1H-benzoimidazol-5-yl)-4-hydroxy-5-oxo-2,5-dihydro-1H-pyrrol-3-yl]-acetic acid]
IC50 (read-out: IC50): 6430 nM

O=C1C(O)=C(c2c[nH]c3ccccc23)C(c2cc(Cl)cc(Cl)c2O)N1CCCn1ccnc1 (centres unmarked) [Compound 113, 5-(3,5-Dichloro-2-hydroxy-phenyl)-3-hydroxy-1-(3-imidazol-1-yl-propyl)-4-(1H-indol-3-yl)-1,5-dihydro-pyrrol-2-one]
IC50 (read-out: IC50): 1300 nM

CCC1=C(O)C(=O)N(CCCn2ccnc2)C1c1ccccc1O (centres unmarked) [Compound 230, 4-Ethyl-3-hydroxy-5-(2-hydroxy-phenyl)-1-(3-imidazol-1-yl-propyl)-1,5-dihydro-pyrrol-2-one]
IC50 (read-out: IC50): 40 nM

CC(C)C1=C(O)C(=O)N(c2ccc3[nH]cnc3c2)C1c1ccsc1 (centres unmarked) [Compound 348, 1-(1H-Benzoimidazol-5-yl)-3-hydroxy-4-isopropyl-5-thiophen-3-yl-1,5-dihydro-pyrrol-2-one]
IC50 (read-out: IC50): 4090 nM

CCC(C)C1C(F)=C(O)C(=O)N1CCCn1ccnc1 (centres unmarked) [Compound 1, 5-sec-Butyl-4-fluoro-3-hydroxy-1-(3-imidazol-1-yl-propyl)-1,5-dihydro-pyrrol-2-one]
IC50 (read-out: IC50): 3100 nM

CC(C)C1=C(O)C(=O)N(CCCn2ccnc2)C1c1ccncc1 (centres unmarked) [Compound 70, 3-Hydroxy-1-(3-imidazol-1-yl-propyl)-4-isopropyl-5-pyridin-4-yl-1,5-dihydro-pyrrol-2-one]
IC50 (read-out: IC50): 4900 nM

O=C1C(O)=C(c2ccccc2)C(C2=CCCCC2)N1CCCn1ccnc1 (centres unmarked) [Compound 94, 5-Cyclohex-1-enyl-3-hydroxy-1-(3-imidazol-1-yl-propyl)-4-phenyl-1,5-dihydro-pyrrol-2-one]
IC50 (read-out: IC50): 4900 nM

CC1=C(O)C(=O)N(c2ccc3nc[nH]c3c2)C1c1cccc(F)c1F (centres unmarked) [Compound 259, 1-(1H-Benzoimidazol-5-yl)-5-(2,3-difluoro-phenyl)-3-hydroxy-4-methyl-1,5-dihydro-pyrrol-2-one]
IC50 (read-out: IC50): 1300 nM

O=C1C(O)=C(c2c[nH]c3ccccc23)C(c2cc[nH]n2)N1CCCn1ccnc1 (centres unmarked) [Compound 116, 3-Hydroxy-1-(3-imidazol-1-yl-propyl)-4-(1H-indol-3-yl)-5-(1H-pyrazol-3-yl)-1,5-dihydro-pyrrol-2-one]
IC50 (read-out: IC50): 400 nM

O=C1C(O)=C(c2c[nH]c3ccccc23)C(C2CC2)N1CCCn1ccnc1 (centres unmarked) [Compound 139, 5-Cyclopropyl-3-hydroxy-1-(3-imidazol-1-yl-propyl)-4-(1H-indol-3-yl)-1,5-dihydro-pyrrol-2-one]
IC50 (read-out: IC50): 400 nM

CCCCCC1=C(O)C(=O)N(CCCn2ccnc2)C1C1CCC=CO1 (centres unmarked) [Compound 200, 5-(3,4-Dihydro-2H-pyran-2-yl)-3-hydroxy-1-(3-imidazol-1-yl-propyl)-4-pentyl-1,5-dihydro-pyrrol-2-one]
IC50 (read-out: IC50): 40 nM

CCC1=C(O)C(=O)N(CCCn2ccnc2)C1C1CCC=CO1 (centres unmarked) [Compound 237, 5-(3,4-Dihydro-2H-pyran-2-yl)-4-ethyl-3-hydroxy-1-(3-imidazol-1-yl-propyl)-1,5-dihydro-pyrrol-2-one]
IC50 (read-out: IC50): 400 nM

CCC1=C(O)C(=O)N(CCCn2ccnc2)C1c1cc(Cl)cc(Cl)c1O (centres unmarked) [Compound 220, 5-(3,5-Dichloro-2-hydroxy-phenyl)-4-ethyl-3-hydroxy-1-(3-imidazol-1-yl-propyl)-1,5-dihydro-pyrrol-2-one]
IC50 (read-out: IC50): 2200 nM

O=C1C(O)=C(c2ccc(O)cc2)C(c2cccc3cccnc23)N1c1ccc2[nH]cnc2c1 (centres unmarked) [Compound 364, 1-(1H-Benzoimidazol-5-yl)-3-hydroxy-4-(4-hydroxy-phenyl)-5-quinolin-8-yl-1,5-dihydro-pyrrol-2-one]
IC50 (read-out: IC50): 5080 nM

CCC1=C(O)C(=O)N(CCCn2ccnc2)C1c1cc[nH]n1 (centres unmarked) [Compound 224, 4-Ethyl-3-hydroxy-1-(3-imidazol-1-yl-propyl)-5-(1H-pyrazol-3-yl)-1,5-dihydro-pyrrol-2-one]
IC50 (read-out: IC50): 1300 nM

Cc1cccc(C2C(C(=O)CC(C)C)=C(O)C(=O)N2c2ccc3[nH]cnc3c2)c1 (centres unmarked) [Compound 458, 1-(1H-Benzoimidazol-5-yl)-3-hydroxy-4-(3-methyl-butyryl)-5-m-tolyl-1,5-dihydro-pyrrol-2-one]
IC50 (read-out: IC50): 580 nM

CC(C)CC(=O)C1=C(O)C(=O)N(c2ccc3[nH]cnc3c2)C1C1CCOC1 (centres unmarked) [Compound 291, 1-(1H-Benzoimidazol-5-yl)-3-hydroxy-4-(3-methyl-butyryl)-5-(tetrahydro-furan-3-yl)-1,5-dihydro-pyrrol-2-one]
IC50 (read-out: IC50): 490 nM

Cc1ccc(C2C(c3c[nH]c4ccccc34)=C(O)C(=O)N2CCCn2ccnc2)cc1 (centres unmarked) [Compound 114, 3-Hydroxy-1-(3-imidazol-1-yl-propyl)-4-(1H-indol-3-yl)-5-p-tolyl-1,5-dihydro-pyrrol-2-one]
IC50 [1]: 266 nM | IC50 (read-out: IC50): 40 nM

CC(C)C1=C(O)C(=O)N(CCCn2ccnc2)C1c1cc[nH]n1 (centres unmarked) [Compound 56, 3-Hydroxy-1-(3-imidazol-1-yl-propyl)-4-isopropyl-5-(1H-pyrazol-3-yl)-1,5-dihydro-pyrrol-2-one]
IC50 (read-out: IC50): 2200 nM

Cc1ccc2occ(C3C(c4ccccc4)=C(O)C(=O)N3c3ccc4[nH]cnc4c3)c(=O)c2c1 (centres unmarked) [Compound 262, 1-(1H-Benzoimidazol-5-yl)-3-hydroxy-5-(6-methyl-4-oxo-4H-chromen-3-yl)-4-phenyl-1,5-dihydro-pyrrol-2-one]
IC50 (read-out: IC50): 850 nM

CCC1C(C)=C(O)C(=O)N1CCCn1ccnc1 (centres unmarked) [Compound 49, 5-Ethyl-3-hydroxy-1-(3-imidazol-1-yl-propyl)-4-methyl-1,5-dihydro-pyrrol-2-one]
IC50 (read-out: IC50): 4900 nM

CC(C)C1=C(O)C(=O)N(CCCn2ccnc2)C1/C=C/c1ccccc1 (centres unmarked) [Compound 64, 3-Hydroxy-1-(3-imidazol-1-yl-propyl)-4-isopropyl-5-(styryl)-1,5-dihydro-pyrrol-2-one]
IC50 (read-out: IC50): 3100 nM

CC1=C(O)C(=O)N(CCCn2ccnc2)C1c1ccc(C)c(C)c1 (centres unmarked) [Compound 29, 5-(3,4-Dimethyl-phenyl)-3-hydroxy-1-(3-imidazol-1-yl-propyl)-4-methyl-1,5-dihydro-pyrrol-2-one]
IC50 (read-out: IC50): 400 nM

O=C1C(O)=C(c2c[nH]c3ccccc23)C(c2c[nH]c3ccccc23)N1CCCn1ccnc1 (centres unmarked) [Compound 132, 3-Hydroxy-1-(3-imidazol-1-yl-propyl)-4,5-bis-(1H-indol-3-yl)-1,5-dihydro-pyrrol-2-one]
IC50 (read-out: IC50): 400 nM

Cc1ccc(C2C(C(C)C)=C(O)C(=O)N2CCCn2ccnc2)cc1 (centres unmarked) [Compound 54, 3-Hydroxy-1-(3-imidazol-1-yl-propyl)-4-isopropyl-5-p-tolyl-1,5-dihydro-pyrrol-2-one]
IC50 (read-out: IC50): 400 nM
